Molecular target: T1, Type-2 angiotensin II receptor (Homo sapiens, UniProt P50052)
T1 sequence (P50052 whole entry): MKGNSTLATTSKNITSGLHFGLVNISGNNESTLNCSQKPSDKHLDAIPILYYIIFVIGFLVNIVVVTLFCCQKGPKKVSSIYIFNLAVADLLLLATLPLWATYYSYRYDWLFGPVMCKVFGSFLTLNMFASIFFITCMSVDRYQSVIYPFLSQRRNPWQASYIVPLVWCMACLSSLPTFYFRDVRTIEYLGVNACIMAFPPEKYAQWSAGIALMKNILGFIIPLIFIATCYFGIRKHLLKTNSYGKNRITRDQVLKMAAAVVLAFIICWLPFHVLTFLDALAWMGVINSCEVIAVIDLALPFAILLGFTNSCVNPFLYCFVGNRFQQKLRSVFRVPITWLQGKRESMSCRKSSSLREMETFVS
Experiment: Receptor Binding Assay: 120 μL membrane (5 mg protein/well) was incubated with 15 μL of [125I]-CGP42112A and 15 μL of compound at RT for 1.5 hrs.The binding reaction was stopped by rapid filtration through Unifilter GF/C plates (presoaked in 0.3% (v:v) BSA).Plate was washed three times with ice cold wash buffer.The filtration plates were dried at 37° C. overnight.50 μL of scintillation cocktail was added to each well.Radioactivity was determined using MicroBetaTriluxmicroplate scintillation counter.

IC50 [nM]	SMILES
354	CC(C)C#CCN(C)[C@H]1CCN(C(=O)C(c2ccccc2)c2ccccc2)[C@H](C(=O)O)C1
228	O=C(O)[C@@H]1C[C@H](OCC#Cc2ccc(F)cc2)CCN1C(=O)C(c1ccccc1)c1ccccc1
76.7	O=C(O)[C@@H]1C[C@H](OCc2ccccc2)CCN1C(=O)C(c1ccccc1)c1ccccc1
153	CC(C)C#CCN(C)[C@@H]1CCN(C(=O)C(c2ccccc2)c2ccccc2)[C@H](C(=O)O)C1
